# pEC50: −log10 of the molar value.
# Key:
# BxPC3 = experiment: Cytotoxicity (CC50) BxPC3; settings: read-out: Cytotoxicity (CC50 uM) BxPC3; BxPC3
# HepG2 = experiment: Cytotoxicity (CC50) HepG2; settings: read-out: Cytotoxicity (CC50 uM) HepG2; HepG2
# CEM = experiment: Cytotoxicity (CC50) CEM; settings: read-out: Cytotoxicity (CC50 uM) CEM; CEM
# Huh-7 = experiment: Cytotoxicity (CC50) Huh-7; settings: read-out: Cytotoxicity (CC50 uM) Huh-7; Huh-7
# A204 = experiment: Cytotoxicity (CC50) A204; assay type: cell-based; settings: A204
# Huh-7 cells = experiment: Cytotoxicity in Huh-7 cells of the HCV replicon assay; settings: read-out: Huh-7 cells (CC50 uM)
# Dengue Type 2 [1] = experiment: Anti-Dengue virus cytoprotection assay, Vero cells; settings: read-out: Dengue Type 2 Vero Cells (EC50 uM)
# Dengue Type 2 [2] = experiment: Anti-Dengue virus cytoprotection assay, Huh-7 cells; settings: Huh-7, read-out: Dengue Type 2 Huh-7 Cells (EC50 uM)
# [3] = Cytotoxicity (CC50) HepG2; settings: human, HepG2 cells
# [4] = Cytotoxicity in Huh-7 cells (Dengue assay); settings: human, Huh-7 cells
# [5] = Cytotoxicity in Vero cells (Dengue assay); settings: African green monkey
# Cytotoxicity (CC50) CEM = settings: human, CEM cells
# [6] = Cytotoxicity (CC50) Huh-7; settings: human, Huh-7 cells
# Influenza A H1N1 = Influenza A H1N1 antiviral assay; assay type: cell-based; settings: Influenza A virus, H1N1, read-out: Influenza A H1N1 EC50
# RSV = RSV antiviral assay; assay type: cell-based; settings: human respiratory syncytial virus
# RVFV = experiment: microbe, parasite or virus in culture; assay type: cell-based; settings: Rift Valley fever virus, read-out: RVFV EC50
# Tacaribe Virus = experiment: microbe, parasite or virus in culture; assay type: cell-based, TCRV; settings: Mammarenavirus tacaribeense, read-out: Tacaribe Virus EC50
# [7] = tested on: Influenza A H5N1 (low path); experiment: microbe, parasite or virus in culture; assay type: cell-based; settings: H5N1, read-out: Influenza A H5N1 (low path) EC50
# CHIK Virus = CHIK Virus screening assay; assay type: cell-based, CHIKV; settings: Chikungunya virus, read-out: CHIK Virus EC50
# Measles = Measles antiviral assay; assay type: cell-based, Measles virus; settings: Measles morbillivirus
# West Nile Virus = West Nile Virus screening assay; assay type: cell-based, WNV; settings: read-out: West Nile Virus EC50
# VEEV = experiment: microbe, parasite or virus in culture; assay type: cell-based; settings: Venezuelan equine encephalitis virus, read-out: VEEV EC50
# SARS = experiment: microbe, parasite or virus in culture; assay type: cell-based; settings: Severe acute respiratory syndrome coronavirus, read-out: SARS EC50
# Influenza A H3N2 = Influenza A H3N2 antiviral assay; assay type: cell-based; settings: Influenza A virus, H3N2, read-out: Influenza A H3N2 EC50
# Dengue Virus = Dengue Virus screening assay; assay type: cell-based, DENV
# Influenza B = Influenza B antiviral assay; assay type: cell-based; settings: Influenza B virus
# GT1b replicon cells = experiment: Cytotoxicity in GT1b replicon cells; assay type: cell-based
smiles,measurement,setting,value
C[C@@]1(O)C(O)[C@@H](CO)O[C@H]1n1ccc(=S)[nH]c1=O (stereo partly shown),CC50,BxPC3,> 100 µM
same,CC50,HepG2,> 400 µM
same,CC50,CEM,> 400 µM
same,CC50,Huh-7,> 100 µM
C[C@@]1(F)C(O)[C@@H](CO)O[C@H]1n1ccc(=S)[nH]c1=O (stereo partly shown),CC50,HepG2,> 400 µM
same,CC50,CEM,> 400 µM
same,CC50,Huh-7,> 400 µM
C[C@@]1(O)C(O)[C@@H](CO)O[C@H]1n1ccc(=O)[nH]c1=S (stereo partly shown),CC50,BxPC3,> 100 µM
same,CC50,HepG2,> 400 µM
same,CC50,CEM,> 200 µM
same,CC50,Huh-7,> 100 µM
CC(C)OC(=O)[C@H](C)NP(=O)(OC[C@H]1O[C@@H](n2ccc(=O)[nH]c2=[Se])[C@](C)(O)C1O)Oc1ccccc1 (stereo partly shown),CC50,A204,> 400 µM
same,CC50,BxPC3,> 400 µM
same,CC50,HepG2,> 400 µM
same,CC50,Huh-7,> 100 µM
CC(C)OC(=O)[C@H](C)N[P@@](=O)(OC[C@H]1O[C@@H](n2ccc(=O)[nH]c2=S)[C@](C)(O)C1O)Oc1ccccc1 (stereo partly shown),CC50,HepG2,> 400 µM
same,CC50,CEM,> 400 µM
same,CC50,Huh-7,> 400 µM
CC(C)OC(=O)[C@H](C)N[P@@](=O)(OC[C@H]1O[C@@H](n2ccc(=O)[nH]c2=O)[C@](C)(F)C1O)Oc1ccccc1 (stereo partly shown),CC50,HepG2,> 400 µM
same,CC50,CEM,> 400 µM
same,CC50,Huh-7,> 400 µM
CC(C)OC(=O)[C@H](C)NP(=O)(OC[C@H]1O[C@@H](n2ccc(=S)[nH]c2=O)[C@@H](O)C1O)Oc1ccccc1 (stereo partly shown),CC50,HepG2,> 400 µM
C[C@H](NP(=O)(O)OC[C@H]1O[C@@H](n2ccc(=O)[nH]c2=S)[C@](C)(O)C1O)C(=O)O (stereo partly shown),CC50,Huh-7 cells,> 100 µM
same,CC50,HepG2,> 400 µM
same,CC50,CEM,> 400 µM
same,CC50,Huh-7,> 400 µM
C[C@@]1(O)C(O)[C@@H](COP(=O)(O)O)O[C@H]1n1ccc(=O)[nH]c1=S (stereo partly shown),CC50,Huh-7 cells,> 100 µM
same,CC50,HepG2,> 400 µM
same,CC50,CEM,> 400 µM
same,CC50,Huh-7,> 400 µM
CC(C)OC(=O)[C@H](C)NP(=O)(OC[C@@]1(N=[N+]=[N-])O[C@@H](n2ccc(=S)[nH]c2=O)[C@@H](O)C1O)Oc1ccccc1 (stereo partly shown),CC50,Huh-7 cells,> 100 µM
same,CC50,HepG2,> 400 µM
same,CC50,CEM,229 µM
same,CC50,Huh-7,> 400 µM
CC(C)OC(=O)[C@H](C)N[P@@](=O)(OC[C@H]1O[C@@H](n2ccc(=O)[nH]c2=S)C(C)(O)[C@H]1O)Oc1ccccc1 (stereo partly shown),EC50,Dengue Type 2 [1],56.2 µM
same,EC50,Dengue Type 2 [2],24.9 µM
same,CC50,[3],> 400 µM
same,CC50,[4],> 100 µM
same,CC50,[5],> 100 µM
same,CC50,Cytotoxicity (CC50) CEM,> 400 µM
same,CC50,[6],> 400 µM
C#C[C@]1(COP(=O)(N[C@@H](C)C(=O)OC(C)C)Oc2ccccc2)O[C@@H](n2ccc(=O)[nH]c2=S)C(O)[C@H]1O (stereo partly shown),EC50,Dengue Type 2 [2],> 100 µM
same,CC50,[3],> 400 µM
same,CC50,[4],> 100 µM
same,CC50,Cytotoxicity (CC50) CEM,> 400 µM
same,CC50,[6],> 400 µM
CC(C)OC(=O)[C@H](C)NP(=O)(OC[C@H]1O[C@@H](n2ccc(=O)[nH]c2=S)C(C)[C@H]1O)Oc1ccccc1 (stereo partly shown),EC50,Dengue Type 2 [2],6.07 µM
same,CC50,[3],> 400 µM
same,CC50,[4],> 100 µM
same,CC50,Cytotoxicity (CC50) CEM,259 µM
same,CC50,[6],> 400 µM
CC(C)OC(=O)[C@H](C)NP(=O)(OC[C@@]1(N=[N+]=[N-])O[C@@H](n2ccc(=S)[nH]c2=O)C(O)[C@H]1O)Oc1ccccc1 (stereo partly shown),EC50,Dengue Type 2 [2],4.82 µM
same,CC50,[3],> 400 µM
same,CC50,[4],> 100 µM
same,CC50,Cytotoxicity (CC50) CEM,229 µM
same,CC50,[6],> 400 µM
CNc1ccn([C@@H]2O[C@H](CO)[C@H](O)C2F)c(=O)n1 (stereo partly shown) [EFVX-01853],pEC50,Influenza A H1N1,< 4.00
same,pEC50,RSV,< 4.00
same,EC50,RVFV,> 100 µg/mL
same,EC50,Tacaribe Virus,> 100 µg/mL
same,pEC50,[7],< 4.00
same,EC50,CHIK Virus,> 100 µg/mL
same,pEC50,Measles,< 4.00
same,EC50,West Nile Virus,> 100 µg/mL
same,EC50,VEEV,> 100 µg/mL
same,pEC50,SARS,< 4.00
same,pEC50,Influenza A H3N2,< 4.00
same,EC50,Dengue Virus,> 100 µg/mL
same,pEC50,Influenza B,< 4.00
CN(C)c1ccn([C@@H]2O[C@H](CO)[C@H](O)C2F)c(=O)n1 (stereo partly shown) [EFVX-01854],pEC50,Influenza A H1N1,< 4.00
same,pEC50,RSV,< 4.00
same,EC50,RVFV,> 100 µg/mL
same,EC50,Tacaribe Virus,> 100 µg/mL
same,pEC50,[7],< 4.00
same,EC50,CHIK Virus,> 100 µg/mL
same,pEC50,Measles,< 4.00
same,EC50,West Nile Virus,> 100 µg/mL
same,EC50,VEEV,> 100 µg/mL
same,pEC50,SARS,< 4.00
same,pEC50,Influenza A H3N2,< 4.00
same,EC50,Dengue Virus,> 100 µg/mL
same,pEC50,Influenza B,< 4.00
Cc1cn([C@@H]2O[C@H](CO)[C@H](O)C2F)c(=O)nc1N (stereo partly shown) [EFVX-01855],pEC50,Influenza A H1N1,< 4.00
same,pEC50,RSV,< 4.00
same,EC50,RVFV,> 100 µg/mL
same,EC50,Tacaribe Virus,> 100 µg/mL
same,pEC50,[7],< 4.00
same,EC50,CHIK Virus,> 100 µg/mL
same,pEC50,Measles,< 4.00
same,EC50,West Nile Virus,> 100 µg/mL
same,EC50,VEEV,> 100 µg/mL
same,pEC50,SARS,< 4.00
same,pEC50,Influenza A H3N2,< 4.00
same,EC50,Dengue Virus,> 100 µg/mL
same,pEC50,Influenza B,< 4.00
Nc1nc(=O)n([C@@H]2O[C@H](CO)[C@H](O)C2F)cc1CO (stereo partly shown) [EFVX-01856],pEC50,Influenza A H1N1,< 4.00
same,pEC50,RSV,< 4.00
same,EC50,RVFV,> 100 µg/mL
same,EC50,Tacaribe Virus,> 100 µg/mL
same,pEC50,[7],< 4.00
same,EC50,CHIK Virus,> 100 µg/mL
same,pEC50,Measles,< 4.00
same,EC50,West Nile Virus,> 100 µg/mL
same,EC50,VEEV,> 100 µg/mL
same,pEC50,SARS,< 4.00
same,pEC50,Influenza A H3N2,< 4.00
same,EC50,Dengue Virus,> 100 µg/mL
same,pEC50,Influenza B,< 4.00
Nc1ccn([C@@H]2O[C@H](CO)[C@H](O)C2F)c(=S)n1 (stereo partly shown) [EFVX-01857],pEC50,Influenza A H1N1,< 4.00
same,pEC50,RSV,< 4.00
same,EC50,RVFV,> 100 µg/mL
same,EC50,Tacaribe Virus,> 100 µg/mL
same,pEC50,[7],< 4.00
same,EC50,CHIK Virus,> 100 µg/mL
same,pEC50,Measles,< 4.00
same,EC50,West Nile Virus,> 100 µg/mL
same,EC50,VEEV,> 100 µg/mL
same,pEC50,SARS,< 4.06
same,pEC50,Influenza A H3N2,< 4.00
same,EC50,Dengue Virus,> 100 µg/mL
same,pEC50,Influenza B,< 4.00
CC(C)OC(=O)[C@H](C)N[P@](=O)(OC[C@H]1O[C@@H](n2ccc(=O)[nH]c2=S)[C@](C)(O)C1O)Oc1ccccc1 (stereo partly shown) [drawing 371],CC50,HepG2,> 400 µM
same,CC50,CEM,> 400 µM
same,CC50,Huh-7,252 µM
CC(C)OC(=O)[C@H](C)N[P@](=O)(OC[C@H]1O[C@@H](n2ccc(=O)[nH]c2=O)[C@](C)(F)C1O)Oc1ccccc1 (stereo partly shown) [drawing 373],CC50,HepG2,365 µM
same,CC50,CEM,> 400 µM
same,CC50,Huh-7,279 µM
CC(C)OC(=O)[C@H](C)NP(=O)(OC[C@H]1O[C@@H](n2ccc(=O)[nH]c2=S)[C@](C)(O)C1O)Oc1ccccc1 (stereo partly shown) [drawing 383],CC50,GT1b replicon cells,> 10 µM
CC(C)OC(=O)[C@H](C)N[P@](=O)(OC[C@H]1O[C@@H](n2ccc(=O)[nH]c2=S)[C@](C)(O)C1O)Oc1ccccc1 (stereo partly shown) [drawing 384],CC50,GT1b replicon cells,> 10 µM
CC(C)OC(=O)[C@H](C)N[P@](=O)(OC[C@H]1O[C@@H](n2ccc(=O)[nH]c2=O)[C@](C)(F)C1O)Oc1ccccc1 (stereo partly shown) [drawing 385],CC50,GT1b replicon cells,> 2 µM

# Source: US12414961B2, “Substituted nucleosides and nucleotides for treating viral infections” (priority 2013, dated 2025)
